Target: T1, EGFR TMLRCS (BaF3-TMLRCS cell line) (Homo sapiens, UniProt P00533, C797S/L858R/T790M)
T1 construct: host or cells: BaF3 (murine pro-B cells) engineered to express EGFR TMLRCS
Experiment: HTRF Phospho EGFR TMLRCS assay (cellular)
Assay type: cell-based
Conditions: BaF3-TMLRCS cells, 4 hours incubation
Experimental: HTRF Phospho EGFR TMLRCS Assay (Cellular)
BaF3-TMLRCS cell line were obtained from Crownbio (San Diego, CA, USA). Cells were maintained at 37° C., 5% CO2 in RPMI ATCC (Gibco 31870) + 2 mM Glutamine + 0.5 µg/ml Puromycin supplemented with 10% fetal bovine serum (FBS) (Gibco).
Cells are transferred as above to Greiner Bio-One, Nr. 784-08 micro-titerplate at 20000 cells/well in 12.5 µl of growth medium/well after the plates had been pre-filled with 12.5 nl of DMSO solutions of the to be tested compound (in dose response) or DMSO only. After spinning the plates at 300 × g for 30 seconds the cells were incubated for 4 hours at 37C, 5% CO2, 95% humidity. The cells were lysed by adding to the compound mix 4 µl/well of the supplemented lysis buffer (Cis-bio, Phospho-EGFR HTRF kit, 64EG1PEH), followed by incubation for 30 min at room temperature with shaking (400 rpm). The plates were then frozen and stored overnight at -80C. […] The lidded plates were then incubated for 4 h at room temperature before reading the fluorescence emission at 616 and 665 nm using an Envision reader (Perkin Elmer). Data was analyzed in similar fashion as above using the normalized ratio of the 665 to 616 signals multiplied by 10000.

T1 sequence (P00533 25-1210 T790M/C797S/L858R): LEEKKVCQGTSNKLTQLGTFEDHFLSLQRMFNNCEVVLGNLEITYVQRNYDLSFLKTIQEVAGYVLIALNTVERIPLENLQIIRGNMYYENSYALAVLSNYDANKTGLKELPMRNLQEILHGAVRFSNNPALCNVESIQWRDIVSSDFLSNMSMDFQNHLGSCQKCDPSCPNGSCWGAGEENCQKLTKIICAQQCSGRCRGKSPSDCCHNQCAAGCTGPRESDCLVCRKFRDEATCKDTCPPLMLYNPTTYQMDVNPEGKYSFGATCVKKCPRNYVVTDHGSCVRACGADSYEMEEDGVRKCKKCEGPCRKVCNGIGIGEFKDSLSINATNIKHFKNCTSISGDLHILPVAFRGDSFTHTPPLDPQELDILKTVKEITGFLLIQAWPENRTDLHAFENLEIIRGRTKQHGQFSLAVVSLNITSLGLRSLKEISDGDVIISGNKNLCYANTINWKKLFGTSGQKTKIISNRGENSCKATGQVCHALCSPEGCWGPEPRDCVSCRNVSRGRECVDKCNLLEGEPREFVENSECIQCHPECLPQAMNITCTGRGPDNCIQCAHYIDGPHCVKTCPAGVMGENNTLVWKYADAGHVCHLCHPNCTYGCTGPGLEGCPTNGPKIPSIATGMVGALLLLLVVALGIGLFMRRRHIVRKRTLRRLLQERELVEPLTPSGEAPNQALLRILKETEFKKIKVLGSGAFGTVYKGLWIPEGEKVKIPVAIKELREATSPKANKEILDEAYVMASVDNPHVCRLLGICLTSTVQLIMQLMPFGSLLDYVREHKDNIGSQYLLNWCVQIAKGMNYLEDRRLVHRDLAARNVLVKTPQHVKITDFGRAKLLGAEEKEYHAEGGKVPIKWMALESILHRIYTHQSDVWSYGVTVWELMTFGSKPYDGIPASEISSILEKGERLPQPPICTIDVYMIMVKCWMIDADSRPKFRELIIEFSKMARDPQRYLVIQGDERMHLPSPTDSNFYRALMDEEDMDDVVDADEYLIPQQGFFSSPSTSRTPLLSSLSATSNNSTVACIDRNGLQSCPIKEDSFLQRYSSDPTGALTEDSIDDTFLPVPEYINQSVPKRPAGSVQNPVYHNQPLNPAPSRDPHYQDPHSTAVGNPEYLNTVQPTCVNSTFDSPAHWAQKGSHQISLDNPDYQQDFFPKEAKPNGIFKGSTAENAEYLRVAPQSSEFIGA

SMILES: O=C(Nc1nccs1)C(c1ncn2c1CCC2)N1Cc2c(Cl)cc(C#Cc3ccc(CN4CCC(CO)CC4)cc3)cc2C1=O (racemic) [Example 1, 2-[4-chloro-6-[2-[4-[[4-(hydroxymethyl)-1-piperidyl]methyl]phenyl]ethynyl]-1-oxo-isoindolin-2-yl]-2-(6,7-dihydro-5H-pyrrolo[1,2-c]imidazol-1-yl)-N-thiazol-2-yl-acetamide]
- IC50: 3 nM
